# According to patent US20250052744A1, “Dyes and Uses Thereof” (The University of Liverpool, priority 2021, published 2025):
# What was measured:
# Test in all cases: Bacterial growth with dyes, optical density after 24 hours
# Format in all cases: cell-based
# Details in all cases: with 3 μM DiSC3(5) and 3 μM SYTO 13/9
# P. Mirabilis NCTC 11938 = test system: P. Mirabilis NCTC 11938
# Protocol: (§1) FIG. 3 is a graph showing is a graph showing the average optical density after 24 hours (OD 600) of P. Aeruginosa NCTC 10332, E. Coli SEC 31, Enterococcus faecium NCTCT 7171, P. Mirabilis NCTC 11938, S. Aureus NCTC 8532 and Klebsiella pneumoniae NCTC 9633, when incubated with DiSC3(5), SYBR Green I and SYTO 13/9 where different concentrations of SYBR Green I were assessed.
# (§2) FIG. 4 is a graph showing is a graph showing the average optical density after 24 hours (OD 600) of P. Aeruginosa NCTC 10332, E. Coli SEC 31, Enterococcus faecium NCTCT 7171, P. Mirabilis NCTC 11938, S. Aureus NCTC 8532 and Klebsiella pneumoniae NCTC 9633, when incubated with DiSC3(5), SYBR Green I and SYTO 13/9 where different concentrations of SYTO 13/9 were assessed.
# (§3) Comparative experiments were conducted using multiple DNA dyes in low concentration and one DNA at different (and higher) concentration in order to establish whether increasing DNA dye concentration would affect bacterial growth and hinder the differentiation of bacterial strains.
# (§4) Experiments were conducted which were similar to Example 1.
# (§5) In one experiment, 3 μM of DiSC3(5) and 3 μM of SYTO 13/9 was assessed with CYBR Green I at the following concentrations: 1× average, 3× average, 10× average, 30 average and 100× average.
# (§6) In another experiment, 3 μM of DiSC3(5) and 10× of CYBR Green I was assessed with SYTO 13/9 at the following concentrations: 1 μM average, 3 μM average and 10 μM average.
# [1] = test system: Klebsiella pneumoniae NCTC 9633
# Protocol: as §1, §2, §3, §4, §5, §6
# S. Aureus NCTC 8532 = test system: S. Aureus NCTC 8532
# Protocol: as §1, §2, §3, §4, §5, §6
# E. Coli SEC 31 = test system: E. Coli SEC 31
# Protocol: as §1, §2, §3, §4, §5, §6
# [2] = test system: Enterococcus faecium NCTCT 7171
# Protocol: as §1, §2, §3, §4, §5, §6
# P. Aeruginosa NCTC 10332 = test system: P. Aeruginosa NCTC 10332
# Protocol: as §1, §2, §3, §4, §5, §6
structure (smiles),measurement,setting,value
"CCCN(CCCN(C)C)c1cc(/C=C2/Sc3ccccc3N2C)c2ccccc2[n+]1-c1ccccc1 [SYBR Green I, N′,N′-dimethyl-N-[4-[(E)-(3-methyl-1,3-benzothiazol-2-ylidene)methyl]-1-phenylquinolin-1-ium-2-yl]-N-propylpropane-1,3-diamine]",average optical density after 24 hours (OD 600),P. Mirabilis NCTC 11938; SYBR Green I 1x,5.785
same,average optical density after 24 hours (OD 600),P. Mirabilis NCTC 11938; SYBR Green I 3x,5.785
same,average optical density after 24 hours (OD 600),P. Mirabilis NCTC 11938; SYBR Green I 10x,4.635
same,average optical density after 24 hours (OD 600),P. Mirabilis NCTC 11938; SYBR Green I 30x,4.044
same,average optical density after 24 hours (OD 600),P. Mirabilis NCTC 11938; SYBR Green I 100x,0.001
same,average optical density after 24 hours (OD 600),[1]; SYBR Green I 1x,4.719
same,average optical density after 24 hours (OD 600),[1]; SYBR Green I 3x,4.907
same,average optical density after 24 hours (OD 600),[1]; SYBR Green I 10x,3.439
same,average optical density after 24 hours (OD 600),[1]; SYBR Green I 30x,2.053
same,average optical density after 24 hours (OD 600),[1]; SYBR Green I 100x,1.138
same,average optical density after 24 hours (OD 600),S. Aureus NCTC 8532; SYBR Green I 1x,3.796
same,average optical density after 24 hours (OD 600),S. Aureus NCTC 8532; SYBR Green I 3x,0
same,average optical density after 24 hours (OD 600),S. Aureus NCTC 8532; SYBR Green I 10x,0
same,average optical density after 24 hours (OD 600),S. Aureus NCTC 8532; SYBR Green I 30x,0
same,average optical density after 24 hours (OD 600),S. Aureus NCTC 8532; SYBR Green I 100x,0
same,average optical density after 24 hours (OD 600),E. Coli SEC 31; SYBR Green I 1x,3.407
same,average optical density after 24 hours (OD 600),E. Coli SEC 31; SYBR Green I 3x,3.306
same,average optical density after 24 hours (OD 600),E. Coli SEC 31; SYBR Green I 10x,3.139
same,average optical density after 24 hours (OD 600),E. Coli SEC 31; SYBR Green I 30x,2.086
same,average optical density after 24 hours (OD 600),E. Coli SEC 31; SYBR Green I 100x,2.514
same,average optical density after 24 hours (OD 600),[2]; SYBR Green I 1x,1.158
same,average optical density after 24 hours (OD 600),[2]; SYBR Green I 3x,1.315
same,average optical density after 24 hours (OD 600),[2]; SYBR Green I 10x,0.136
same,average optical density after 24 hours (OD 600),[2]; SYBR Green I 30x,0
same,average optical density after 24 hours (OD 600),[2]; SYBR Green I 100x,0.022
same,average optical density after 24 hours (OD 600),P. Aeruginosa NCTC 10332; SYBR Green I 1x,5.785
same,average optical density after 24 hours (OD 600),P. Aeruginosa NCTC 10332; SYBR Green I 3x,5.785
same,average optical density after 24 hours (OD 600),P. Aeruginosa NCTC 10332; SYBR Green I 10x,2.968
same,average optical density after 24 hours (OD 600),P. Aeruginosa NCTC 10332; SYBR Green I 30x,3.113
same,average optical density after 24 hours (OD 600),P. Aeruginosa NCTC 10332; SYBR Green I 100x,2.39
